pIC50: −log10 of the molar value. One block for each compound: values may come before it.
How the values were obtained:
Human recombinant PKCβ1 = biological target: T1, Human recombinant PKCβ1 (Homo sapiens, UniProt P05771); assay: Protein Kinase Cβ1 assay; type: biochemical; settings: for pIC50: human recombinant PKCβ1, single compounds
T1 construct: purchased Oxford Biomedical Research
Procedure: (§1) The compounds of the invention are tested for their activity on different PKC isoforms according to the following method. Assay is performed in a white with clear bottom 384-well microtiterplate with non-binding surface. The reaction mixture (25 μl) contains 1.5 μM of a tridecapeptide acceptor substrate that mimics the pseudo substrate sequence of PKC a with the Ala→Ser replacement, 10 μM ^33P-ATP, 10 mM Mg(NO3)2, 0.2 mM CaCl2, PKC at a protein concentration varying from 25 to 400 ng/ml (depending on the isotype used), lipid vesicles (containing 30 mol % phosphatidylserine, 5 mol % DAG and 65 mol % phosphatidylcholine) at a final lipid concentration of 0.5 mM, in 20 mM Tris-HCl buffer pH 7.4+0.1% BSA. Incubation is performed for 60 min at room temperature. Reaction is stopped by adding […] of stop mix (100 mM EDTA, 200 μM ATP, 0.1% Triton X-100, 0.375 mg/well streptavidin-coated SPA beads in phosphate buffered saline w/o Ca, Mg. After 10 min incubation at room temperature, the suspension is spun down for 10 min at 300 g. Incorporated radioactivity is measured in a Trilux counter for 1 min. IC50 measurement is performed on a routine basis by incubating a serial dilution of inhibitor at concentrations ranging between 1-1000 μM. IC50 values are calculated from the graph by curve fitting with XL Fit® software.
Human recombinant PKCβ1 was obtained from Oxford Biomedical Research and is used under the assay conditions as described under Section A.1 above.

Human recombinant PKCη = biological target: T2, Human recombinant PKCη (Homo sapiens, UniProt P24723); assay: Protein Kinase Cη assay; type: biochemical
T2 construct: purchased PanVera
Procedure: as §1, with “software. […]” for “software.”

Human recombinant PKCε = biological target: T3, Human recombinant PKCε (Homo sapiens, UniProt Q02156); assay: Protein Kinase Cε assay; type: biochemical
T3 construct: purchased Oxford Biomedical Research
T3 sequence (Q02156 1-737): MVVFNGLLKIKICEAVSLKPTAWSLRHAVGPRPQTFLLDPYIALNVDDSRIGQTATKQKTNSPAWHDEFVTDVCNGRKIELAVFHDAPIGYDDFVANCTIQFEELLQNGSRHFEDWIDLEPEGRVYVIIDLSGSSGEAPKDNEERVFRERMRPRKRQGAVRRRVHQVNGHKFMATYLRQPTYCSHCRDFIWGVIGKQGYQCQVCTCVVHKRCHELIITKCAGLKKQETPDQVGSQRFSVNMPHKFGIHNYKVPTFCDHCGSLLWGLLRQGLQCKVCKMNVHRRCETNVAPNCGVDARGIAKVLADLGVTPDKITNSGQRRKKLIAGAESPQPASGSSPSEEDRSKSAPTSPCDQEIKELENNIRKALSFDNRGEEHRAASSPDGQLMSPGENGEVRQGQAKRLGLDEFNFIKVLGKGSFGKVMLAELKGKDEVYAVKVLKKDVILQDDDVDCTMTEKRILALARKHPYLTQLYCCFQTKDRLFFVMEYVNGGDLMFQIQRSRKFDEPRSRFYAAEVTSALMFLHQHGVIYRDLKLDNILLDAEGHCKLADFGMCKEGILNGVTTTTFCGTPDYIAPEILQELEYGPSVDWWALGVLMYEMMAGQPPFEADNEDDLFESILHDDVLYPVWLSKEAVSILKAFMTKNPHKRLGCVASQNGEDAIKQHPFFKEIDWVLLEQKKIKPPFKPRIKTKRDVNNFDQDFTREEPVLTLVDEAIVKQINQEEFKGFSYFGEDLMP
Procedure: as §1, with “software. […]” for “software.”

[1] = test system: spleen cells from CBA and BALB/c mice; assay: Allogeneic Mixed Lymphocyte Reaction (MLR), compared with BM assay; type: cell-based
Procedure: The two-way MLR is performed according to standard procedures (J. Immunol. Methods, 1973, 2, 279 and Meo T. et al., Immunological Methods, New York, Academic Press, 1979, 227-39). Briefly, spleen cells from CBA and BALB/c mice (1.6×10^5 cells from each strain per well in flat bottom tissue culture microtiter plates, 3.2×10^5 in total) are incubated in RPMI medium containing 10% FCS, 100 U/ml penicillin, 100 μg/ml streptomycin (Gibco BRL, Basel, Switzerland), 50 μM 2-mercaptoethanol (Fluka, Buchs, Switzerland) and serially diluted compounds. Seven three-fold dilution steps in duplicates per test compound are performed. After four days of incubation 1 μCi ^3H-thymidine is added. Cells are harvested after an additional five-hour incubation period, and incorporated ^3H-thymidine is determined according to standard procedures. […]
The ratios of the IC50 value for PKC β to the IC50 value for PKCα, of the IC50 value for PKC δ to the IC50 value for PKCα, of the IC50 value for PKC δ to the IC50 value for PKCα, of the IC50 value for PKC ε to the IC50 value for PKCα, of the IC50 value for PKC η to the IC50 value for PKCα, of the IC50 value for PKC θ to the IC50 value for PKCα, of the IC50 value as determined by the MLR assay and to the IC50 value as determined by the BM assay, obtained for some compounds of the invention are indicated in table 11.

Human recombinant PKCθ = Human recombinant PKCθ (Homo sapiens, UniProt Q04759); assay: Protein Kinase C θ assay; type: biochemical
Procedure: as §1, with “software. […]” for “software.”

Human recombinant PKCδ = biological target: T4, Human recombinant PKCδ (Homo sapiens, UniProt Q05655); assay: Protein Kinase Cδ assay; type: biochemical
T4 construct: purchased Oxford Biomedical Research
Procedure: as §1, with “software. […]” for “software.”

Human recombinant PKCα = biological target: T5, Human recombinant PKCα (Homo sapiens, UniProt P17252); assay: Protein Kinase Cα assay; type: biochemical; settings: single compounds
T5 construct: purchased Oxford Biomedical Research
Procedure: as §1
Human recombinant PKCα was obtained from Oxford Biomedical Research and is used under the assay conditions as described under Section A.1 above.

T1 sequence (P05771 whole entry): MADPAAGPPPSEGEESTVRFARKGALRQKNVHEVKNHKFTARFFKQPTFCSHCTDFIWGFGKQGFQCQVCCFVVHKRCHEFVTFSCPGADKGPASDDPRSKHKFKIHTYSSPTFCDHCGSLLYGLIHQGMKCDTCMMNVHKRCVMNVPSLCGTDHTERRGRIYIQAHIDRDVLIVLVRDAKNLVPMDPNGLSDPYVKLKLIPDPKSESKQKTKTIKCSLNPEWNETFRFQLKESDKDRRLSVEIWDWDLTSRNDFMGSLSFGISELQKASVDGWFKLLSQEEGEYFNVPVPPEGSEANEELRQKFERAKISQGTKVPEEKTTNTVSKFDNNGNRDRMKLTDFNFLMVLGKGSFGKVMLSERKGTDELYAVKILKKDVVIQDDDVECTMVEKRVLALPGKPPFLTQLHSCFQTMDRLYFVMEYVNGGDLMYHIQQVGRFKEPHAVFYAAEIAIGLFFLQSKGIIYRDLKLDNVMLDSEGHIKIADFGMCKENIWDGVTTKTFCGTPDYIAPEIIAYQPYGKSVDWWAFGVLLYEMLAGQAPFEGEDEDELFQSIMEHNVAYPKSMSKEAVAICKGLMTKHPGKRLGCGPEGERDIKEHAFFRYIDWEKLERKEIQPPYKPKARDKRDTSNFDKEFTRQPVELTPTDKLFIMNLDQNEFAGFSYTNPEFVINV
T4 sequence (Q05655 whole entry): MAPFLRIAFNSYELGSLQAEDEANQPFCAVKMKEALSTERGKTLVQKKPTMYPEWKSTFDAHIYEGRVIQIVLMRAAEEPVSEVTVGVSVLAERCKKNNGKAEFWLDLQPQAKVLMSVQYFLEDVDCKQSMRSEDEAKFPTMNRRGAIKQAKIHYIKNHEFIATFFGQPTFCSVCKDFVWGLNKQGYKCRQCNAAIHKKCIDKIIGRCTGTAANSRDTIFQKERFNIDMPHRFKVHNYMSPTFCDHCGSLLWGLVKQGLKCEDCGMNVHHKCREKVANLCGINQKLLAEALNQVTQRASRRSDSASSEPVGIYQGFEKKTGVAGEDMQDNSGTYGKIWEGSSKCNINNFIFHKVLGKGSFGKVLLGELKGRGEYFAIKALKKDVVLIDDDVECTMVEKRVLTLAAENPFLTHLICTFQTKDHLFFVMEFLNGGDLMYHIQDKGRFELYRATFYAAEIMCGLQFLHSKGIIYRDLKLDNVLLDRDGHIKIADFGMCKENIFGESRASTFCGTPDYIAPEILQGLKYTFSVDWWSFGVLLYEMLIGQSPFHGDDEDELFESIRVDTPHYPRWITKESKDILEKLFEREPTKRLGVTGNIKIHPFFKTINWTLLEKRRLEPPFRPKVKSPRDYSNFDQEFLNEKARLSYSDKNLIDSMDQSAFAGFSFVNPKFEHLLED
T2 sequence (P24723 whole entry): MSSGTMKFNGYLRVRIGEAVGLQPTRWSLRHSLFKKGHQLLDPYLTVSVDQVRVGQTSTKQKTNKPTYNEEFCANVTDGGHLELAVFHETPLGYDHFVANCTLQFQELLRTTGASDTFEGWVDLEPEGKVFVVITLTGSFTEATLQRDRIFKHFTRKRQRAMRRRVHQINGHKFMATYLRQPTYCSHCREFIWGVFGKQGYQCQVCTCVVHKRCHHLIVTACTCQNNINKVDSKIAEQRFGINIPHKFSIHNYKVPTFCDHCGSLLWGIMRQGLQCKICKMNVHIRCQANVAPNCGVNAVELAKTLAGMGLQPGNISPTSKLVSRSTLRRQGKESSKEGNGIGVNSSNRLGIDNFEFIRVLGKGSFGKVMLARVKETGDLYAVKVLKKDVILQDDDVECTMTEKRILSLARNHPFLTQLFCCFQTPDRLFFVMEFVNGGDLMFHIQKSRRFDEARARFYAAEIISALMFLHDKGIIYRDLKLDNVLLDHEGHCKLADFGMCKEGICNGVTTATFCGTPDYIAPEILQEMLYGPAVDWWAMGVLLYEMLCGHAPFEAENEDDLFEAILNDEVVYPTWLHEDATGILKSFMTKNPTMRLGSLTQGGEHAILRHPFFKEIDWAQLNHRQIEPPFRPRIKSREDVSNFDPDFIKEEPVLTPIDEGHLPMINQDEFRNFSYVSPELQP
Chain of Human recombinant PKCθ (Q04759 whole entry): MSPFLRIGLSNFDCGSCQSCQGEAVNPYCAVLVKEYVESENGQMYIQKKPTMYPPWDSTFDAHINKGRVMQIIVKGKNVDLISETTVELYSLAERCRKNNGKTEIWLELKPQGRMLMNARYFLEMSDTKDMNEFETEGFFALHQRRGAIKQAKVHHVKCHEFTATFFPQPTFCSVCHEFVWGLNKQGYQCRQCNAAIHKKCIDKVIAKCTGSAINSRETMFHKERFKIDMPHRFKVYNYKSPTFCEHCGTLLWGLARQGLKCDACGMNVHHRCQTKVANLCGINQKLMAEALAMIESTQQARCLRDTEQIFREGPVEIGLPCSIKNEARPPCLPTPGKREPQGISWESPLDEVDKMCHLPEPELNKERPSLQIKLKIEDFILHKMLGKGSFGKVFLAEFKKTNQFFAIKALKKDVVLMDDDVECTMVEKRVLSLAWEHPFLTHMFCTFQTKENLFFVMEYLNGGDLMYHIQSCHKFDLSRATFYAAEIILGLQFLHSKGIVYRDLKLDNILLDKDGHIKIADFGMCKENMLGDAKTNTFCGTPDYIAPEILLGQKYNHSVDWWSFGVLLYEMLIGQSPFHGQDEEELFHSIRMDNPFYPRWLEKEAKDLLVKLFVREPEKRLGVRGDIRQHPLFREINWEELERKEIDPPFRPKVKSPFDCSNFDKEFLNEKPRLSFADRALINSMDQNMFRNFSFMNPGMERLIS

SMILES: Cn1cc(C2=C(c3c(Cl)ccc4ccc(CNCCF)cc34)C(=O)NC2=O)c2ccccc21 [Example 1, 3-{2-Chloro-7-[(2-fluoro-ethylamino)-methyl]-naphthalen-1-yl}-4-(1-methyl-1H-indol-3-yl)-pyrrole-2,5-dione]
η/α (ratio of the IC50 value for PKC η to the IC50 value for PKCα) (Human recombinant PKCη): 39.3
ε/α (ratio of the IC50 value for PKC ε to the IC50 value for PKCα) (Human recombinant PKCε): 19.4
BM/MLR (ratio of IC50 by the BM assay and IC50 by the MLR assay) [1]: 41.3
θ/α (ratio of the IC50 value for PKC θ to the IC50 value for PKCα) (Human recombinant PKCθ): 2.9
β/α (ratio of the IC50 value for PKC β to the IC50 value for PKCα) (Human recombinant PKCβ1): 0.5
δ/α (ratio of the IC50 value for PKC δ to the IC50 value for PKCα) (Human recombinant PKCδ): 7.1

SMILES: COc1cccc2c(C3=C(c4c(Cl)ccc5ccc(CN(C)C)cc45)C(=O)NC3=O)c[nH]c12 [Example 37]
pIC50 (Human recombinant PKCα): 8.52

SMILES: CN(C)Cc1ccc2ccc(Cl)c(C3=C(c4cn5c6c(cccc46)OCCC5)C(=O)NC3=O)c2c1 [Example 20]
η/α (ratio of the IC50 value for PKC η to the IC50 value for PKCα) (Human recombinant PKCη): >35.7
ε/α (ratio of the IC50 value for PKC ε to the IC50 value for PKCα) (Human recombinant PKCε): >35.7
BM/MLR (ratio of IC50 by the BM assay and IC50 by the MLR assay) [1]: >10
θ/α (ratio of the IC50 value for PKC θ to the IC50 value for PKCα) (Human recombinant PKCθ): 14.2
β/α (ratio of the IC50 value for PKC β to the IC50 value for PKCα) (Human recombinant PKCβ1): 0.4
pIC50 (Human recombinant PKCβ1): 7.91
δ/α (ratio of the IC50 value for PKC δ to the IC50 value for PKCα) (Human recombinant PKCδ): 30.6
pIC50 (Human recombinant PKCα): 7.55

SMILES: COCCOc1ccc2c(C3=C(c4c(Cl)ccc5ccc(CN(C)C)cc45)C(=O)NC3=O)c[nH]c2c1 [Example 38]
pIC50 (Human recombinant PKCα): 8.05

Continued, values first:

pIC50 (Human recombinant PKCβ1): 7.39
SMILES: CN(C)Cc1ccc2ccc(Cl)c(C3=C(c4cn(C)c5ccccc45)C(=O)NC3=O)c2n1 [Example 163]

pIC50 (Human recombinant PKCβ1): 7.29
SMILES: Cc1cccc2c(C3=C(c4c(Cl)ccc5ncc(CN(C)C)cc45)C(=O)NC3=O)c[nH]c12 [Example 136]

pIC50 (Human recombinant PKCβ1): 7.60
SMILES: CN(C)Cc1cc2c(C3=C(c4c[nH]c5ccccc45)C(=O)NC3=O)c(Cl)ccc2cn1 [Example 146]
